Measurements reported in patent publication US4430327A, “Method for treating pregnant females for pain and anxiety” (Eli Lilly and Company, priority 1982, dated 1984).

What was measured:
[1] = Placental transport in pregnant ewes: maternal and fetal serum levels after intramuscular administration; format: in vivo; details: sheep
Protocol: In the assay using pregnant ewes, fetal jugular veins and carotid arteries were catheterized and externalized. Maternal femoral arteries were also catheterized. Upon stabilization of the animals, metkephamid (acetate salt) was given intramuscularly, and maternal (10 ml.) and fetal (7 ml.) arterial blood were taken at 0, 10, 20, and 45 minutes. In this assay, 5 ewes at various stages of pregnancy ranging from day 115 to day 145 of a 145-147 day gestation period were used.
(§1) In assaying for metkephamid, 1 ml. serum samples containing 6.72 mg. NaF and 8.0 mg. ethylenediamine tetraacetic acid (EDTA) were prepared and precipitated by addition of 2 ml. acetone. The resulting supernatants were saturated with NaCl and extracted with ethyl acetate. The extracts were dried and derivatized with Fluram® solution. The resulting solution was subjected to reverse phase high performance liquid chromatography and fluorescence detection.

[2] = Placental transport in pregnant rats: maternal and fetal serum levels after subcutaneous administration; format: in vivo; details: rat, 50 mg/kg subcutaneous
Protocol: In the assay using rats, 19 female rats on day 20 of their gestation period were administered 50 mg./kg. body weight metkephamid (acetate salt) subcutaneously. Sixty minutes after administration, the rats were decapitated, and their blood was collected in glass tubes. The fetuses were removed from the uterus, and the blood was collected either after decapitation or via heart puncture using glass capillary tubes.
as §1
For comparison, meperidine was administered to rats in the manner described for metkephamid. Meperidine content was assayed by adding 6.72 mg. NaF and 8.0 mg. EDTA to 1 ml. samples of serum. The samples were made alkaline with 0.1 ml. of 1.0 M NaOH and extracted with diethyl ether. The extracts were dried and dissolved in 0.3 ml. of ethyl acetate. An aliquot was injected into a gas chromatograph containing a 5 ft. glass column packed with 3% OV-1 on 100/120 mesh Gas Chrom Q. The oven temperature was 165° C., and the flame ionization detector temperature was 250° C.

| Structure (SMILES) | level at 10 min ([1]; female, maternal serum, im, 5 mg/kg intramuscular, 10 min) [ng/mL] | level at 20 min ([1]; female, maternal serum, im, 5 mg/kg intramuscular, 20 min) [ng/mL] | level at 0.75 h ([1]; female, maternal serum, im, 5 mg/kg intramuscular, 45 min) [ng/mL] | fetal levels ([1]; 5 mg./kg., all measured times, limit of sensitivity about 50 ng./ml.) | Fetal serum level ([1]; 5 mg/kg intramuscular, 0 min) [µg/mL] | Maternal serum level ([1]; 5 mg/kg intramuscular, 0 min) [µg/mL] | Fetal serum level ([1]; 5 mg/kg intramuscular, 10 min) [µg/mL] | Fetal serum level ([1]; 5 mg/kg intramuscular, 20 min) [µg/mL] | Fetal serum level ([1]; 5 mg/kg intramuscular, 45 min) [µg/mL] | Fetal serum level ([2]; 60 min) [µg/mL] | Maternal serum level ([2]; 60 min) [µg/mL] | Fetal serum level ([2]; 45 min) [µg/mL] | Maternal serum level ([2]; 45 min) [µg/mL] |
| --- | --- | --- | --- | --- | --- | --- | --- | --- | --- | --- | --- | --- | --- |
| CC(=O)O.CSCC[C@@H](C(N)=O)N(C)C(=O)[C@H](Cc1ccccc1)NC(=O)CNC(=O)[C@@H](C)NC(=O)[C@@H](N)Cc1ccc(O)cc1 [Metkephamid, L-tyrosyl-D-alanyl-glycyl-L-phenylalanyl-N^α -methyl-L-methionylamide acetate] | 9460 ± 3010 | 9430 ± 2600 | 8540 ± 2600 | undetectable | 0.0 | 0.0 | 0.0 | 0.0 | 0.0 | 0.12 ± 0.04 | 7.17 ± 0.28 |  |  |
| CCOC(=O)C1(c2ccccc2)CCN(C)CC1 [Meperidine, meperidine, reference compound] |  |  |  |  |  |  |  |  |  |  |  | 2.02 ± 0.23 | 3.73 ± 0.89 |
